Here are results for 11 molecules from patent publication US20250215010A1, “DIAZABICYCLOOCTANE DERIVATIVES USEFUL AS MATRIX METALLOPROTEINASE INHIBITORS” (VASA THERAPEUTICS SPOLKA Z OGRANICZONA ODPOWIEDZIALNOSCIA, priority 2022, published 2025).

Molecules are shown by their SMILES.

Format in all cases: biochemical
The target of experiment [1] is T1, MMP13 (Homo sapiens, UniProt P45452).
T1 construct: purchased Enzo Life Sciences, Inc. BML-AK412
Put plainly: MMP-13 colorimetric inhibition assay (Enzo kit BML-AK412). The following applies: thiopeptide substrate, absorbance 415 nm; read-out: MMP 13 IC50 class. As for the experimental part: (§1) The inhibitory activities of the compounds of the invention were assessed in 96-well microplate format using MMP1, MMP2, MMP9 and MMP13 colorimetric assay kits and TACE fluorometric assay kit from Enzo Life Sciences, Inc. The inhibitory effect of the compounds of the invention on ADAM10 activity were evaluated in 96-well microplate format using fluorometric assay from AnaSpec, Inc.
The MMP-13 Colorimetric Drug Discovery Kit (catalog #BML-AK412) is a complete assay system designed to screen inhibitors of matrix metalloproteinase-13 using a thiopeptide as a chromogenic substrate (Ac-PLG-[2-mercapto-4-methylpentanoyl]-LG-OC2H5). The MMP cleavage site peptide bond is replaced by a thioester bond in the thiopeptide. Hydrolysis of this bond by an MMP produces a sulfhydryl group, which reacts with DTNB [5,5′-dithiobis(2-nitrobenzoic acid), Ellman's reagent] to form 2-nitro-5-thiobenzoic acid, that can be detected spectrophotometrically.
(§2) The inhibitory activities of the compounds of the invention against MMP1, MMP2, MMP9 and MMP13 were tested according to the manufacturer's assay protocols and the absorbance at 415 nm was monitored using the Tecan Infinite® 200 Pro F Nano^+ microplate reader.
(§3) The normalized values were analyzed using GraphPadPrism 9 for Windows (GraphPad Software, San Diego, CA, USA) software by plotting inhibition curves and determining the IC50 values (in nM).

The target of experiment [2] is T2, MMP2 (Homo sapiens, UniProt P08253).
T2 sequence (P08253 110-660): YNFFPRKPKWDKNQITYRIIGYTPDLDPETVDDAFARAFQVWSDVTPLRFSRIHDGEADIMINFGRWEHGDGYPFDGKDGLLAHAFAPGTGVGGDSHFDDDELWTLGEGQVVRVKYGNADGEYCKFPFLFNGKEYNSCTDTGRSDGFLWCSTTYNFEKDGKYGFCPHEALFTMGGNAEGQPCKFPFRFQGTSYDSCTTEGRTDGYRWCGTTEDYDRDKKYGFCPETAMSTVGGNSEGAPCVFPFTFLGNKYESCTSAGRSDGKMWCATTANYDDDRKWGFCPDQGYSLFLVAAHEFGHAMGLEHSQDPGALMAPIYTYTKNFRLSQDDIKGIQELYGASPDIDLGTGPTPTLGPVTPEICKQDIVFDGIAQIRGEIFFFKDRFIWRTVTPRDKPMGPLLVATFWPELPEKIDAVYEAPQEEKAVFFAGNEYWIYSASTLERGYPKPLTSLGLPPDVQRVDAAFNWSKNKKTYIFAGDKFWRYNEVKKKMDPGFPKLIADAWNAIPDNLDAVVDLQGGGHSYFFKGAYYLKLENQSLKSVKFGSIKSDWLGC
Put plainly: MMP-2 colorimetric inhibition assay (Enzo kit BML-AK408). To be noted: thiopeptide substrate, absorbance 415 nm; read-out: MMP 2 IC50 class. Here is the method:
as §1
The MMP-2 Colorimetric Drug Discovery Kit (catalog #BML-AK408) is a complete assay system designed to screen MMP-2 inhibitors using a thiopeptide as a chromogenic substrate (Ac-PLG-[2-mercapto-4-methylpentanoyl]-LG-OC2H5). The MMP cleavage site peptide bond is replaced by a thioester bond in the thiopeptide. Hydrolysis of this bond by an MMP produces a sulfhydryl group, which reacts with DTNB [5,5′-dithiobis(2-nitrobenzoic acid), Ellman's reagent] to form 2-nitro-5-thiobenzoic acid, that can be detected spectrophotometrically.
as §2, §3

The target of experiment [3] is MMP9 (Homo sapiens, UniProt P14780). Description: MMP-9 colorimetric inhibition assay (Enzo kit BML-AK410). The following applies: thiopeptide substrate, absorbance 415 nm; read-out: MMP 9 IC50 class. As for the experimental part:
as §1
The MMP-9 Colorimetric Drug Discovery Kit (catalog #BML-AK410) is a complete assay system designed to screen inhibitors of matrix metalloproteinase-9 using a thiopeptide as a chromogenic substrate (Ac-PLG-[2-mercapto-4-methylpentanoyl]-LG-OC2H5). The MMP cleavage site peptide bond is replaced by a thioester bond in the thiopeptide. Hydrolysis of this bond by an MMP produces a sulfhydryl group, which reacts with DTNB [5,5′-dithiobis(2-nitrobenzoic acid), Ellman's reagent] to form 2-nitro-5-thiobenzoic acid, that can be detected spectrophotometrically.
as §2, §3

For experiment [4], the target named is ADAM17 (TACE) (Homo sapiens, UniProt P78536). Put plainly: TACE fluorometric inhibition assay (Enzo kit BML-AK310). To be noted: quenched fluorogenic peptide, ex/em 320/420 nm; read-out: TACE IC50 class. As for the experimental part:
as §1
The TACE Fluorometric Drug Discovery Kit (catalog #BML-AK310) is a complete assay system designed to screen ADAM17 (TACE) inhibitors using a quenched fluorogenic peptide: Mca-PLAQAV-Dpa-RSSSR—NH2. Mca fluorescence is quenched by the Dpa group until cleavage by proteases separates the two moieties leading to an increase in Mca fluorescence.
The inhibitory activity of the compounds of the invention against TACE was tested according to the manufacturer's assay protocol and the fluorescence was monitored at excitation/emission wavelengths=320 nm/420 nm using Tecan Infinite® 200 Pro F Nano^+ microplate reader.
as §3

In experiment [5] the target is T3, MMP1 (Homo sapiens, UniProt P03956).
T3 sequence (P03956 100-269 limits assumed): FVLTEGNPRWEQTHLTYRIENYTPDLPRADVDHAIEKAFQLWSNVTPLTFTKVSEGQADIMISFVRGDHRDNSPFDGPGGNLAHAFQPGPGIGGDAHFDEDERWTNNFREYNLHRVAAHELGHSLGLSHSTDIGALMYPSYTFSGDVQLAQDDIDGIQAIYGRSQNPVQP
Put plainly: MMP-1 colorimetric inhibition assay (Enzo kit BML-AK404). The following applies: thiopeptide substrate, absorbance 415 nm; read-out: MMP 1 IC50 class. Here is the method: as §1
The MMP-1 Colorimetric Drug Discovery Kit (catalog #BML-AK404) is a complete assay system designed to screen inhibitors of matrix metalloproteinase-1 using a thiopeptide as a chromogenic substrate (Ac-PLG-[2-mercapto-4-methylpentanoyl]-LG-OC2H5). The MMP cleavage site peptide bond is replaced by a thioester bond in the thiopeptide. Hydrolysis of this bond by an MMP produces a sulfhydryl group, which reacts with DTNB [5,5′-dithiobis(2-nitrobenzoic acid), Ellman's reagent] to form 2-nitro-5-thiobenzoic acid, that can be detected spectrophotometrically.
as §2, §3

Sequence of ADAM17 (TACE) (P78536 215-477 limits assumed): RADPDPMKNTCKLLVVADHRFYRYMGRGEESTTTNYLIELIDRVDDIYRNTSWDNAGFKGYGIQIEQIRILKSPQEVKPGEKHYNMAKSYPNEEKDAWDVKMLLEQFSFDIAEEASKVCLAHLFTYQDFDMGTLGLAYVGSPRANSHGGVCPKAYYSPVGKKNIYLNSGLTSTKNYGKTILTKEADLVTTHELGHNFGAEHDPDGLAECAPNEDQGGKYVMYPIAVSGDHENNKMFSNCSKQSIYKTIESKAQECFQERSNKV
Sequence of MMP9 (P14780 94-707): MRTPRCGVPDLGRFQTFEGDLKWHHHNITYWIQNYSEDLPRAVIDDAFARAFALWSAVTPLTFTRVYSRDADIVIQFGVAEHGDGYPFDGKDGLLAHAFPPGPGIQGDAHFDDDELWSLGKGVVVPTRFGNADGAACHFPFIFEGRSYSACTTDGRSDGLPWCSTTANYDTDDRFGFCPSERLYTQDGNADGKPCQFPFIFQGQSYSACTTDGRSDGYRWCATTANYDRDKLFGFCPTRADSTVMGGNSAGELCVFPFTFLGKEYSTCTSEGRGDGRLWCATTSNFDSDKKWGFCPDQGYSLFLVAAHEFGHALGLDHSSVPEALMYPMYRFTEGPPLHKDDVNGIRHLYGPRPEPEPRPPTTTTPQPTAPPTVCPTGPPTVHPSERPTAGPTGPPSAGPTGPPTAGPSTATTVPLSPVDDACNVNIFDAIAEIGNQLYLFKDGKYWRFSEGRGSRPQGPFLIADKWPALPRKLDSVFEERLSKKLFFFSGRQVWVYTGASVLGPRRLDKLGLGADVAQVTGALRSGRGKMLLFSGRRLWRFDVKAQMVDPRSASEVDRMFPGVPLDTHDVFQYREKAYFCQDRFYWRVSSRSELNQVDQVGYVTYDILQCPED

With `COCCOC(=O)N1[C@@H]2CC[C@H]1[C@H](C(=O)NO)N(S(=O)(=O)c1cc(F)c(Oc3ccc(Cl)cc3)c(F)c1)C2` [Example 2, (1S,2R,5R)-2-methoxyethyl 3-((4-(4-chlorophenoxy)-3,5-difluoro-phenyl)sulfonyl)-2-(hydroxycarbamoyl)-3,8-diazabicyclo-[3.2.1]octane-8-carboxylate], the IC50 in experiment [1], in experiment [2] and in experiment [3] was 50 to 1000 nM in each case.
Turning to `CCn1cc(Oc2ccc(S(=O)(=O)N3C[C@H]4CC[C@@H]([C@@H]3C(=O)NO)N4C(=O)OCCOC)cn2)cn1` [Example 35, 2-methoxyethyl (1S,2R,5R)-3-((6-((1-ethyl-1H-pyrazol-4-yl)-oxy)pyridin-3-yl)-sulfonyl)-2-(hydroxycarbamoyl)-3,8-diaza-bicyclo[3.2.1]octane-8-carboxylate], the IC50 (as a rule, the concentration that gives 50% inhibition) was 50 to 1000 nM in experiment [4]; below 50 nM in experiment [1]; below 50 nM in experiment [2]; below 50 nM in experiment [3]; 50 to 1000 nM in experiment [5].
As for `COCCOC(=O)N1[C@@H]2CC[C@H]1[C@H](C(=O)NO)N(S(=O)(=O)N1CCN(Cc3ccc(OC)cc3)CC1)C2` [Example 77, 2-methoxyethyl (1S,2R,5R)-2-(hydroxycarbamoyl)-3-((4-(4-methoxybenzyl)piperazin-1-yl)sulfonyl)-3,8-diazabicyclo[3.2.1]octane-8-carboxylate], the IC50 in experiment [4] was 1000 to 10000 nM; in experiment [1] it was 1000 to 10000 nM; in experiment [2], 50 to 1000 nM; in experiment [3], 50 to 1000 nM; in experiment [5], above 10000 nM.
In the case of `COCCOC(=O)N1[C@@H]2CC[C@H]1[C@H](C(=O)NO)N(S(=O)(=O)c1cnc(Oc3ccc(F)cc3)cn1)C2` [Example 17, 2-methoxyethyl (1S,2R,5R)-3-((5-(4-fluorophenoxy)-pyrazin-2-yl)sulfonyl)-2-(hydroxycarbamoyl)-3,8-diazabicyclo-[3.2.1]octane-8-carboxylate], the IC50 was above 10000 nM in experiment [4]; 1000 to 10000 nM in experiment [1]; 1000 to 10000 nM in experiment [2]; 1000 to 10000 nM in experiment [3]; above 10000 nM in experiment [5].
In the case of `COCCOC(=O)N1[C@@H]2CC[C@H]1[C@H](C(=O)NO)N(S(=O)(=O)c1ccc(Oc3nc4ccc(Cl)cc4o3)c(F)c1)C2` [Example 80, 2-methoxyethyl (1S,2R,5R)-3-((4-((6-chlorobenzo[d]-oxazol-2-yl)oxy)-3-fluorophenyl)-sulfonyl)-2-(hydroxycarbamoyl)-3,8-diazabicyclo-[3.2.1]octane-8-carboxylate], the IC50 was 1000 to 10000 nM in experiment [4]; 1000 to 10000 nM in experiment [1]; 1000 to 10000 nM in experiment [2]; 1000 to 10000 nM in experiment [3]; above 10000 nM in experiment [5].
In the case of `COCCOC(=O)N1[C@@H]2CC[C@H]1[C@H](C(=O)NO)N(S(=O)(=O)c1ccc(OC3CCN(C(C)C)CC3)nc1)C2` [Example 75, 2-methoxyethyl (1S,2R,5R)-2-(hydroxycarbamoyl)-3-((6-((1-isopropyl-piperidin-4-yl)oxy)-pyridin-3-yl)-sulfonyl)-3,8-diaza-bicyclo[3.2.1]octane-8-carboxylate], the IC50 in experiment [4] was 1000 to 10000 nM; in experiment [1], 50 to 1000 nM; in experiment [2], 50 to 1000 nM; in experiment [3] it was 50 to 1000 nM; in experiment [5], 1000 to 10000 nM.
Turning to `COCCOC(=O)N1[C@@H]2CC[C@H]1[C@H](C(=O)NO)N(S(=O)(=O)c1ccc(OC3CCC(C)(C)CC3)nc1)C2` [Example 12, 2-methoxyethyl (1S,2R,5R)-3-((6-((4,4-dimethyl-cyclohexyl)-oxy)pyridin-3-yl)-sulfonyl)-2-(hydroxycarbamoyl)-3,8-diazabicyclo[3.2.1]-octane-8-carboxylate], the concentration for half-maximal inhibition (IC50) is 1000 to 10000 nM in experiment [4]; 50 to 1000 nM in experiment [1]; 50 to 1000 nM in experiment [2]; below 50 nM in experiment [3]; 1000 to 10000 nM in experiment [5].
In the case of `COCCOC(=O)N1[C@@H]2CC[C@H]1[C@H](C(=O)NO)N(S(=O)(=O)c1ccc(Oc3nc4ccccc4o3)nc1)C2` [Example 84, 2-methoxyethyl (1S,2R,5R)-3-((6-(benzo[d]oxazol-2-yloxy)pyridin-3-yl)sulfonyl)-2-(hydroxycarbamoyl)-3,8-diazabicyclo[3.2.1]octane-8-carboxylate], the IC50 in experiment [1], in experiment [2] and in experiment [3] was above 10000 nM each time.
Regarding `COCCOC(=O)N1[C@@H]2CC[C@H]1[C@H](C(=O)NO)N(S(=O)(=O)c1ccc(Oc3nc4cc(F)ccc4o3)c(F)c1)C2` [Example 83, 2-methoxyethyl (1S,2R,5R)-3-((3-fluoro-4-((5-fluoro-benzo[d]oxazol-2-yl)oxy)phenyl)sulfonyl)-2-(hydroxy-carbamoyl)-3,8-diazabicyclo[3.2.1]-octane-8-carboxylate], the IC50 in experiment [1], in experiment [2] and in experiment [3] was 1000 to 10000 nM each time.
Consider `COCCOC(=O)N1[C@@H]2CC[C@H]1[C@H](C(=O)NO)N(S(=O)(=O)c1ccc(-c3cccc(F)c3)nc1)C2` [Example 4, 2-methoxyethyl (1S,2R,5R)-3-((6-(3-fluorophenyl)pyridin-3-yl)sulfonyl)-2-(hydroxycarbamoyl)-3,8-diaza-bicyclo[3.2.1]octane-8-carboxylate], for which the values for the IC50 in experiment [1], in experiment [2] and in experiment [3] were 50 to 1000 nM, 50 to 1000 nM and 1000 to 10000 nM, respectively.
For the molecule `COCCOC(=O)N1[C@H]2CC[C@@H]1[C@@H](C(=O)NO)N(S(=O)(=O)c1cc(F)c(Oc3ccc(Cl)cc3)c(F)c1)C2` [Example 3, 2-methoxyethyl (1R,2S,5S)-3-((4-(4-chlorophenoxy)-3,5-difluorophenyl)-sulfonyl)-2-(hydroxycarbamoyl)-3,8-diaza-bicyclo[3.2.1]octane-8-carboxylate], the concentration for half-maximal inhibition (IC50) in experiment [1], in experiment [2] and in experiment [3] was 1000 to 10000 nM each time.
